pKi: −log10 of the molar value. Like-named read-outs stand apart in the source and are kept apart here.
Tests used:
[1] = target: T1, α4β2 Receptor (alpha4beta2 nAChR) (Rattus norvegicus, UniProt P09483+P12390); experiment: Displacement binding of 3H-cytisine to rat brain membranes (α4β2 nAChR)
T1 construct: protein concentration of the rat brain membranes contained in the pellet; tissue Pel-Freeze Biologicals; host or cells: whole male Sprague-Dawley rat brain membranes
Description: (§1) Whole male Sprague-Dawley rat brains (Pel-Freeze Biologicals, Rogers, Ariz.) were homogenized with a 30 ml Wheaton (location) glass homogenizing tube and pestle in binding saline (120 mM NaCl, 5 mM KCl, 2 mM CaCl2, 1 mM MgCl2, 50 mM Tris-TrisHCl buffer, pH 7.4). After the homogenate was centrifuged at 11,000 rpm (convert to ×G) for a 10 min, the resulting pellet was resuspended in fresh binding saline and homogenized and centrifuged again. A protein assay (BCA, Pierce, Rockford, Ill.) was then performed to obtain the protein concentration of the rat brain membranes contained in the pellet, which was stored at −85° C. before use.
Radioligands used in the displacement binding assays were obtained from Perkin Elmer Life and Analytical Sciences (Boston, Mass.). ^3H-Cytisine was used to selectively bind to alpha4beta2 nAChRs and ^125I-α-bungarotoxin (α-Btx) for alpha? nAChRs. ^3H-Cytisine (34 Ci/mmol) experiments were performed according to Flores et al. (1992) with a few minor alterations, specifically that the incubation time was increased to four hours at 4° C. to assure binding equilibrium. The ^125I-α-Btx (136 Ci/mmol) experiments involved 37° C. incubation for three hours to assure equilibration. Both radioligands were generally tested at final concentrations of 1 nM. Membranes at the above mentioned concentrations were suspended in binding saline containing 2 mg/ml of bovine serum albumin (Sigma, St. Louis, Mo.) to reduce non-specific binding. For each radioligand, nonspecific binding was measured in the presence of a final concentration of 1 mM (S)-nicotine hydrogen tartrate salt (Sigma, St. Louis, Mo.). After incubation, radioligand bound to membranes in 48 tubes was rapidly collected by vacuum filtration using a Brandel cell harvester (Gaithersburg, Md.) and Whatman GF/C glass fiber filters that were pre-soaked in 0.5% polyethylenimine for 45 minutes to reduce nonspecific binding. The radiolabeled membranes were rapidly washed three times with 3 ml ice-cold binding saline to separate bound from free radioligand. Filters containing ^3H-cytisine bound membranes were placed in 20 ml scintillation tubes and suspended in 8 mls of 30% Scintisafe scintillation fluid (Fisher), then counted in a Beckman LS-6500 liquid scintillation counter (Fullerton, Calif.). Filters containing ^125I-α-Btx bound membranes were placed in 4 ml scintillation vials and counted in a Beckman 5500B gamma counter (Fullerton, Calif.).
Displacement assay binding data were analyzed using GraphPad Prism software (San Diego, Calif.). The mean counts per minute values for each concentration of a given compound concentration were obtained from 4 replicates. The data were fitted to a sigmoidal concentration response curve from which the Hill slope (n) and IC50 (X) values were estimated: Y=Bottom+(Top−Bottom)/(1+10^(Log IC50-X)n) Here, Top=maximal specific binding of radioligand at the top of the curve and Bottom=minimum specific binding observed at high concentrations of the displacing ligand. […] Results and Discussion

[2] = target: T2, α7 Receptor (alpha7 nAChR) (Rattus norvegicus, UniProt Q05941); experiment: Displacement binding of 125I-α-bungarotoxin to rat brain membranes (α7 nAChR); details: for α7/α4β2 Selectivity (Selectivity factor): Ki for alpha4beta2 binding divided by Ki for alpha7 binding, rat brain; for Enantiomeric Selectivity: given once per enantiomer pair, on the line of the first enantiomer, rat α7 binding
T2 construct: protein concentration of the rat brain membranes contained in the pellet; tissue Pel-Freeze Biologicals; host or cells: whole male Sprague-Dawley rat brain membranes
T2 sequence (Q05941 23-502): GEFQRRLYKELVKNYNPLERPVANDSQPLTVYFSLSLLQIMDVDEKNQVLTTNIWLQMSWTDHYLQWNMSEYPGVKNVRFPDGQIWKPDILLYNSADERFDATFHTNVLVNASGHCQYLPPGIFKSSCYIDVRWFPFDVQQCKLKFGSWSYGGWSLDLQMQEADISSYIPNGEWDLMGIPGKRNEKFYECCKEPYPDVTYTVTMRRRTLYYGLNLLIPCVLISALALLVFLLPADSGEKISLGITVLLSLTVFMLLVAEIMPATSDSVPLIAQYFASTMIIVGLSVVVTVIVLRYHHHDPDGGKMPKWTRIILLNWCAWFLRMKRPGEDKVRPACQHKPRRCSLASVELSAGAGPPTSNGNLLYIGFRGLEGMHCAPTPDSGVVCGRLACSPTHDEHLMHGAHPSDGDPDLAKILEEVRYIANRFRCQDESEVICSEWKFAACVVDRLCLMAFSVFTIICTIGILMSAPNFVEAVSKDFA
Source text: As used herein, the term “selectively binds,” “selective binding,” and cognates thereof refer to anabaseine compounds that preferentially bind one type of nicotinic acetylcholine receptor relative to another type of acetylcholine receptor (e.g., α7 nAChR versus the α4β2 nAChR). Because Ki is an inverse measure of affinity, binding selectivity of a compound for the α7 nAChR versus the α4β2 nAChR is expressed by dividing the Ki for binding to the α4β2 nAChR by the Ki for binding to the α7 nAChR. In one embodiment, a compound of the invention selectively binds α7 nAChR compared to α4β2 nAChR. The selectivity of a compound of the invention for α7 nAChR over α4β2 nAChR is at least 2, 3, 4, 5, 6, 7, 8, 9, 10, 11, 12, 13, 14, 15, or more. In another embodiment, a compound of the invention selectively binds α4β2 nAChR compared to α7 nAChR. The selectivity of a compound of the invention for α4β2 nAChR over α7 nAChR is at least 2, 3, 4, 5, 6, 7, 8, 9, 10, 11, 12, 13, 14, 15, or more. Binding to the α7 and α4β2 nAChR (including relative binding to each of these receptors) can be determined by the skilled artisan using the methods known in the art, in particular in view of the teachings provided herein. In particular, the assays used to determine selective binding are according to Marks and Collins for [^125I]alpha-bungarotoxin experiments (for alpha7 receptor binding) and a modified method by Pabreza et al. for [^3H]cytisine experiments (for α4β2), used as described in US 2009/0215705.
as §1
Radioligands used in the displacement binding assays were obtained from Perkin Elmer Life and Analytical Sciences (Boston, Mass.). ^3H-Cytisine was used to selectively bind to alpha4beta2 nAChRs and ^125I-α-bungarotoxin (α-Btx) for alpha? nAChRs. ^3H-Cytisine (34 Ci/mmol) experiments were performed according to Flores et al. (1992) with a few minor alterations, specifically that the incubation time was increased to four hours at 4° C. to assure binding equilibrium. The ^125I-α-Btx (136 Ci/mmol) experiments involved 37° C. incubation for three hours to assure equilibration. Both radioligands were generally tested at final concentrations of 1 nM. Membranes at the above mentioned concentrations were suspended in binding saline containing 2 mg/ml of bovine serum albumin (Sigma, St. Louis, Mo.) to reduce non-specific binding. For each radioligand, nonspecific binding was measured in the presence of a final concentration of 1 mM (S)-nicotine hydrogen tartrate salt (Sigma, St. Louis, Mo.). After incubation, radioligand bound to membranes in 48 tubes was rapidly collected by vacuum filtration using a Brandel cell harvester (Gaithersburg, Md.) and Whatman GF/C glass fiber filters that were pre-soaked in 0.5% polyethylenimine for 45 minutes to reduce nonspecific binding. The radiolabeled membranes were rapidly washed three times with 3 ml ice-cold binding saline to separate bound from free radioligand. Filters containing ^3H-cytisine bound membranes were placed in 20 ml scintillation tubes and suspended in 8 mls of 30% Scintisafe scintillation fluid (Fisher), then counted in a Beckman LS-6500 liquid scintillation counter (Fullerton, Calif.). Filters containing ^125I-α-Btx bound membranes were placed in 4 ml scintillation vials and counted in a Beckman 5500B gamma counter (Fullerton, Calif.). […]

[3] = rat brain membranes, 3H-cytisine 1 nM, 4° C. four hours, read-out: α4β2 Receptor Rat Ki
[4] = rat brain membranes, 125I-α-Btx 1 nM, 37° C. three hours, read-out: α7 Receptor Rat Ki

T1 sequence (P09483 31-630): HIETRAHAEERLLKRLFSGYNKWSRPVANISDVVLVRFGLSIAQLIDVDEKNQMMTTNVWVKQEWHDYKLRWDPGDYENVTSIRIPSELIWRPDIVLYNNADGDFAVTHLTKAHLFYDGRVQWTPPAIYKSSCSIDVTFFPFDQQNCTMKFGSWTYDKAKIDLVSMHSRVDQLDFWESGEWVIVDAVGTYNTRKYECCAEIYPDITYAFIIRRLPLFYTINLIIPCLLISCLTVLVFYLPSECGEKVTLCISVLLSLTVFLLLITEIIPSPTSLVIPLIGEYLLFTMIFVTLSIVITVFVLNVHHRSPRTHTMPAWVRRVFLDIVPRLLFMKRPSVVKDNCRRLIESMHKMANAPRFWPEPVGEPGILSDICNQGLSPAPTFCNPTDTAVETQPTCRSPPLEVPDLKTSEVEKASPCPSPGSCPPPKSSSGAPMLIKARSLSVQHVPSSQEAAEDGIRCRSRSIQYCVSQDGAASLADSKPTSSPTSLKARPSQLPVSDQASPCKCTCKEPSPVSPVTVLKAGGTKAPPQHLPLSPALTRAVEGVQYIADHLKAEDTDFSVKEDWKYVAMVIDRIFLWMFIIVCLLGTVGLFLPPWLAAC
T1 sequence (P12390 25-500): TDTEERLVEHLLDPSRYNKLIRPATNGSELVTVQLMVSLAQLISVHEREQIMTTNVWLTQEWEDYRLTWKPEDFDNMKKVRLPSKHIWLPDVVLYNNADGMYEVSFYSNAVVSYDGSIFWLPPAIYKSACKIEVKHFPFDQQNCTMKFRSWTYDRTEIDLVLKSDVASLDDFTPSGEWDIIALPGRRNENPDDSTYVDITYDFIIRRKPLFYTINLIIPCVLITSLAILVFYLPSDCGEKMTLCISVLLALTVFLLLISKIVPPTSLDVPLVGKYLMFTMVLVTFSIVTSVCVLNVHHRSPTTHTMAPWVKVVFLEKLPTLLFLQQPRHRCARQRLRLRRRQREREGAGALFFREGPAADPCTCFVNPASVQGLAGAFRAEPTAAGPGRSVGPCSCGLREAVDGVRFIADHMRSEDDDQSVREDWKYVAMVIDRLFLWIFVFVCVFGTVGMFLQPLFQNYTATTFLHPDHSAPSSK

| Compound | pKi [1] | pKi [2] | α7/α4β2 Selectivity (Selectivity factor) [2] | pKi [1, 3] | Enantiomeric Selectivity [2] | pKi [2, 4] |
| --- | --- | --- | --- | --- | --- | --- |
| c1cncc(C2=NCCCC2)c1 [Compound 1, anabaseine, reference compound] | 7.12 | 6.54 | 0.26 |  |  |  |
| COc1ccc(/C=C2\CCCN=C2c2cccnc2)c(OC)c1 [Compound 2, 3-(2,4-dimethoxybenzylidene)-anabaseine, reference compound] |  |  | 1.91 |  |  |  |
| Oc1ccc(C=C2CCCN=C2c2cccnc2)cc1 [Compound 3, reference compound] |  |  | 1.2 | 6.35 |  |  |
| COc1ccc(C=C2C(c3cccnc3)=NCC[C@H]2C)c(OC)c1 [Compound 4, 3-(DMXB)-4(R)-methyl-anabaseine] |  | 7.21 | 2.5 | 6.82 | 2.0 |  |
| COc1ccc(/C=C2/C(c3cccnc3)=NCC[C@@H]2C)c(OC)c1 [Compound 5, 3-(2,4-Dimethoxybenzylidene)-4(S)-methyl-anabaseine] |  | 6.90 | 1.5 | 6.72 |  |  |
| COc1ccc(C=C2CC(C)CN=C2c2cccnc2)c(OC)c1 (stereo not shown) [Compound 6] |  |  |  |  | 6.8 | 6.66 |
| COc1ccc(C=C2CC(C)CN=C2c2cccnc2)c(OC)c1 (stereo not shown) [Compound 7] |  | 5.82 |  |  |  |  |
| COc1ccc(/C=C2\CC[C@H](C)N=C2c2cccnc2)c(OC)c1 [Compound 8, 3-(2,4-Dimethoxybenzylidene)-6(S)-methyl-anabaseine] |  | 6.68 | 2.8 | 6.23 | 3.3 |  |
| COc1ccc(C=C2CC[C@@H](C)N=C2c2cccnc2)c(OC)c1 [Compound 9, 3-(DMXB)-6(R)-methyl-anabaseine] |  | 6.40 | 0.86 | 6.46 |  |  |
| COc1ccc(C=C2C(c3cccnc3)=NC(C)CC2C)c(OC)c1 (stereo not shown) [Compound 10] |  |  | 1.3 | 7.30 | 11 | 7.42 |
| COc1ccc(/C=C2/C(c3cccnc3)=N[C@H](C)C[C@@H]2C)c(OC)c1 [Compound 11] |  |  | 1.5 | 6.21 |  | 6.39 |
| COc1ccc(/C=C2/C(c3cccnc3)=N[C@H]3CC[C@@H]2C3)c(OC)c1 [Compound 12, (1S,5R,E)-4-(2,4-dimethoxybenzylidene)-3-(pyridin-3-yl)-2-azabicyclo[3.2.1]oct-2-ene] |  | 7.79 | 13 | 6.66 | 270 |  |
| COc1ccc(/C=C2/C(c3cccnc3)=N[C@@H]3CC[C@H]2C3)c(OC)c1 [Compound 13, (1R,5S,E)-4-(2,4-dimethoxybenzylidene)-3-(pyridin-3-yl)-2-azabicyclo[3.2.1]oct-2-ene] |  | 5.36 | 0.079 | 6.46 |  |  |
| Oc1ccc(/C=C2/C(c3cccnc3)=N[C@H]3CC[C@@H]2C3)cc1 [Compound 14, 4-((E)-((1S,5R)-3-(pyridin-3-yl)-2-azabicyclo[3.2.1]oct-2-en-4-ylidene)methyl)phenol] | 7.14 | 7.47 | 2.1 |  |  |  |
| C[C@H]1CC/C(=C\c2ccc(N)cc2)C(c2cccnc2)=N1 [Compound 15, 3-(4-Aminobenzylidene)-6(S)-methyl-anabaseine] |  | 7.14 | 4.3 | 6.50 |  |  |
| Nc1ccc(/C=C2/C(c3cccnc3)=N[C@H]3CC[C@@H]2C3)cc1 [Compound 16, 3-(4-Aminobenzylidene)-4(R),6(S)-ethylene-anabaseine] | 7.47 | 8.46 | 9.9 |  |  |  |
